{
  "source": "patent US20250361543A1",
  "about": "“Instrumentation for Rapid Antimicrobial Susceptibility Testing from Bodily Fluids and Cultures” (Georgia Tech Research Corporation, priority 2022, published 2025)",
  "system": "Escherichia coli",
  "experiment": "Plate reader antimicrobial susceptibility test (MIC) directly from positive blood culture",
  "assay_type": "cell-based",
  "conditions": "for MIC: Escherichia coli",
  "description": "The tests can also provide a low labor cost. Disclosed in this example are systems and methods for performing ASTs directly from positive blood cultures. De-identified hospital patient positive blood cultures were received within 8 hours of being flagged positive. ASTs were performed using various antimicrobial agents, namely seven antibiotics (ceftazidime, meropenem, tobramycin, levofloxacin, cefepime, gentamicin, and amikacin). The positive blood cultures were diluted 250-fold in cation-adjusted Mueller-Hinton Broth (CAMHB) media and 100 μL of this diluted sample was dispensed into each well of a 96-well microtiter plate, already containing 100 μL of varying concentration of one antibiotic. […] The sample-filled 96-well plate was sealed by sterile plastic film and incubated in a microtiter plate reader at 37° C. A temperature gradient of 0.5° C. was selected to prevent condensation on cover film. Each well was scanned every one hour from 400 to 895 nm with a 5 nm step starting from the time of incubation (0 hours) resulting in a total of nineteen spectra per well.\nRelating to data analysis-spectra (400 to 895 nm) vs time were acquired from each well. Spectral principal components (PCs) were computed for all wells at each time point and those explaining at least 90% of the variance were calculated. […] Determining the lowest concentration for each antibiotic that inhibited growth based on these spectral overlaps determined the MIC for each antibiotic used.\nThe antibiotics concentrations are as in the plate layout and growth is measures as absorption at each excitation wavelength compares with the positive controls. Dark red indicates growth while bright red indicates no growth.",
  "key": {"[1]": {"conditions": "6 hours incubation at 37° C, positive blood culture diluted 500-fold in CAMHB, assay of FIG. 4, read-out: MIC (6 hours)"}, "[2]": {"conditions": "8 hours incubation at 37° C, positive blood culture diluted 500-fold in CAMHB, assay of FIG. 4, read-out: MIC (8 hours)"}, "[3]": {"conditions": "10 hours incubation at 37° C, positive blood culture diluted 500-fold in CAMHB, assay of FIG. 4, read-out: MIC (10 hours)"}, "[4]": {"conditions": "18 hours incubation at 37° C, positive blood culture diluted 500-fold in CAMHB, assay of FIG. 4, read-out: MIC (18 hours)"}},
  "note": "Like-named read-outs stand apart in the source and are kept apart here.",
  "data": [
    {"molecule": "NC[C@H]1O[C@H](O[C@H]2[C@H](O)[C@@H](O[C@H]3O[C@H](CO)[C@@H](O)[C@H](N)[C@H]3O)[C@H](N)C[C@@H]2N)[C@H](N)C[C@@H]1O", "note": "[Tobramycin, tobramycin]", "values": [
      {"measurement": "MIC", "setting": "[1]", "value": 1, "unit": "µg/mL"},
      {"measurement": "MIC", "setting": "[2]", "value": 1, "unit": "µg/mL"},
      {"measurement": "MIC", "setting": "[3]", "value": 1, "unit": "µg/mL"},
      {"measurement": "MIC", "setting": "[4]", "value": 1, "unit": "µg/mL"}
    ]},
    {"molecule": "C[C@H]1COc2c(N3CCN(C)CC3)c(F)cc3c(=O)c(C(=O)O)cn1c23", "note": "[Levofloxacin, levofloxacin]", "values": [
      {"measurement": "MIC", "setting": "[1]", "value": "≤ 0.0312", "unit": "µg/mL"},
      {"measurement": "MIC", "setting": "[2]", "value": "≤ 0.0312", "unit": "µg/mL"},
      {"measurement": "MIC", "setting": "[3]", "value": "≤ 0.0312", "unit": "µg/mL"},
      {"measurement": "MIC", "setting": "[4]", "value": "≤ 0.0312", "unit": "µg/mL"}
    ]},
    {"molecule": "CO/N=C(\\C(=O)N[C@@H]1C(=O)N2C(C(=O)[O-])=C(C[N+]3(C)CCCC3)CS[C@H]12)c1csc(N)n1", "note": "[Cefepime, cefepime]", "values": [
      {"measurement": "MIC", "setting": "6 h, read-out: MIC (6 hours)", "value": "≤ 0.0312", "unit": "µg/mL"},
      {"measurement": "MIC", "setting": "8 h, read-out: MIC (8 hours)", "value": "≤ 0.0312", "unit": "µg/mL"},
      {"measurement": "MIC", "setting": "10 h, read-out: MIC (10 hours)", "value": "≤ 0.0312", "unit": "µg/mL"},
      {"measurement": "MIC", "setting": "18 h, read-out: MIC (18 hours)", "value": "≤ 0.0312", "unit": "µg/mL"}
    ]},
    {"molecule": "NCC[C@H](O)C(=O)N[C@@H]1C[C@H](N)[C@@H](O[C@H]2O[C@H](CN)[C@@H](O)[C@H](O)[C@H]2O)[C@H](O)[C@H]1O[C@H]1O[C@H](CO)[C@@H](O)[C@H](N)[C@H]1O", "note": "[Amikacin, amikacin]", "values": [
      {"measurement": "MIC", "setting": "[1]", "value": 2, "unit": "µg/mL"},
      {"measurement": "MIC", "setting": "[2]", "value": 2, "unit": "µg/mL"},
      {"measurement": "MIC", "setting": "[3]", "value": 2, "unit": "µg/mL"},
      {"measurement": "MIC", "setting": "[4]", "value": 2, "unit": "µg/mL"}
    ]},
    {"molecule": "CC(C)(O/N=C(\\C(=O)N[C@@H]1C(=O)N2C(C(=O)[O-])=C(C[n+]3ccccc3)CS[C@H]12)c1csc(N)n1)C(=O)O", "note": "[Ceftazidime, ceftazidime]", "values": [
      {"measurement": "MIC", "setting": "[1]", "value": 0.0625, "unit": "µg/mL"},
      {"measurement": "MIC", "setting": "[2]", "value": 0.0625, "unit": "µg/mL"},
      {"measurement": "MIC", "setting": "[3]", "value": 0.0625, "unit": "µg/mL"},
      {"measurement": "MIC", "setting": "[4]", "value": 0.0625, "unit": "µg/mL"}
    ]},
    {"molecule": "C[C@@H](O)[C@H]1C(=O)N2C(C(=O)O)=C(S[C@@H]3CN[C@H](C(=O)N(C)C)C3)[C@H](C)[C@H]12", "note": "[Meropenem, meropenem]", "values": [
      {"measurement": "MIC", "setting": "[1]", "value": "≤ 0.0312", "unit": "µg/mL"},
      {"measurement": "MIC", "setting": "[2]", "value": "≤ 0.0312", "unit": "µg/mL"},
      {"measurement": "MIC", "setting": "[3]", "value": "≤ 0.0312", "unit": "µg/mL"},
      {"measurement": "MIC", "setting": "[4]", "value": "≤ 0.0312", "unit": "µg/mL"}
    ]},
    {"molecule": "gentamicin", "values": [
      {"measurement": "MIC (6 hours)", "setting": "6 hours incubation at 37° C, positive blood culture diluted 500-fold in CAMHB, assay of FIG. 4", "value": 1, "unit": "µg/mL"},
      {"measurement": "MIC (8 hours)", "setting": "8 hours incubation at 37° C, positive blood culture diluted 500-fold in CAMHB, assay of FIG. 4", "value": 1, "unit": "µg/mL"},
      {"measurement": "MIC (10 hours)", "setting": "10 hours incubation at 37° C, positive blood culture diluted 500-fold in CAMHB, assay of FIG. 4", "value": 1, "unit": "µg/mL"},
      {"measurement": "MIC (18 hours)", "setting": "18 hours incubation at 37° C, positive blood culture diluted 500-fold in CAMHB, assay of FIG. 4", "value": 1, "unit": "µg/mL"}
    ]}
  ]
}
